Measurements: the supplement of paper PMC11451515

System: P12-Ichikawa
Assay: cell viability relative to DMSO control; higher = less cytotoxic
Settings: HPLM + 10% dialyzed FBS, 48 h
In short: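 In 1536-well plates, 5 μl of leukemia cells were seeded per well: 500 cells/well for NOMO1 or SEM and 1000 cells/well for P12-Ichikawa. Each line had first been adapted for at least four passages in each medium. Library compounds in DMSO were pin-dosed at 11 threefold concentrations between 47 μM and 0.79 nM, and CellTiter-Glo One luminescence was read after 48 h at 37°C. Viability is a per-plate percentage relative to DMSO wells, with cell-free wells as background.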

COc1ccc(-n2nc(C(N)=O)c3c2C(=O)N(c2ccc(N4CCCCC4=O)cc2)CC3)cc1
cell viability (0.000781 µM): 118%
cell viability (0.00234 µM): 121%
cell viability (0.00702 µM): 125%
cell viability (0.0211 µM): 132%
cell viability (0.0632 µM): 132%
cell viability (0.19 µM): 127%
cell viability (0.569 µM): 141%
cell viability (1.71 µM): 124%
cell viability (5.12 µM): 16%
cell viability (15.4 µM): 15.2%
cell viability (46.1 µM): 14.8%
